Experimental data taken from patent US12052991B2, “Substituted pyridinyloxybenzenes and salts thereof and use thereof as herbicidal agents” (Bayer Aktiengesellschaft, priority 2018, dated 2024).

Columns and labels:
Assay type in all cases: in vivo
[1] = tested on: harmful plants ABUTH, AMARE, ECHCG, LOLRI, MATIN, POAAN, SETVI, STEME, ALOMY, DIGSA, KCHSC and VERPE; assay: Herbicidal post-emergence action, summary of Tables B1-B12; conditions: application rate of 1280 or 320 g of active ingredient per hectare; summary in words
Method: Seeds of mono- and dicotyledonous weed plants were placed in plastic pots in sandy loam soil (doubly sown with in each case one species of mono- or dicotyledonous weed plants per pot), covered with soil and cultivated in a greenhouse under controlled growth conditions. 2 to 3 weeks after sowing, the test plants were treated at the one-leaf stage. The compounds of the invention, formulated in the form of wettable powders (WP) or as emulsion concentrates (EC), were applied onto the green parts of the plants as aqueous suspension or emulsion with addition of 0.5% additive at a water application rate of 600 liters per hectare (converted). After the test plants had been kept in the greenhouse under optimum growth conditions for about 3 weeks, the activity of the preparations was rated visually in comparison to untreated controls.
(§1) For example, 100% activity=the plants have died, 0% activity=like control plants.
Tables B1 to B12 below show the effects of selected compounds of the general formula (I) according to Table 1 on various harmful plants and an application rate corresponding to 1280 or 320 g/ha, which were obtained by the experimental procedure mentioned above.
As the results of Tables B1-B12 show, compounds no.

Poa annua (POAAN) [2] = assay: Herbicidal pre-emergence action, test C (Table C3); conditions: visual scoring after about 3 weeks, 100% = plants have died, 0% = like control plants
Excerpt: (§2) Seeds of mono- and dicotyledonous weed plants were placed in plastic pots in sandy loam soil (doubly sown with one species each of mono- or dicotyledonous weed plants per pot) and covered with soil. The compounds of the invention, formulated in the form of wettable powders (WP) or as emulsion concentrates (EC), were then applied onto the surface of the covering soil as aqueous suspension or emulsion with addition of 0.5% additive at a water application rate of 600 liters per hectare (converted). After the treatment, the pots were placed in a greenhouse and kept under good growth conditions for the test plants. After about 3 weeks, the effect of the preparations was scored visually in comparison with untreated controls as percentages. For example, 100% activity=the plants have died, 0% activity=like control plants. Tables C1 to C12 below show the effects of selected compounds of the general formula (I) according to Table 1 on various harmful plants and an application rate corresponding to 1280 or 320 g/ha, which were obtained by the experimental procedure mentioned above.

Setaria viridis (SETVI) = assay: Herbicidal pre-emergence action, test C (Table C4); conditions: visual scoring after about 3 weeks, 100% = plants have died, 0% = like control plants
Excerpt: as §2

[3] = tested on: Abutilon theophrasti (ABUTH); assay: Herbicidal pre-emergence action, test C (Table C5); conditions: visual scoring after about 3 weeks, 100% = plants have died, 0% = like control plants
Excerpt: as §2

Stellaria media (STEME) [4] = assay: Herbicidal pre-emergence action, test C (Table C8); conditions: visual scoring after about 3 weeks, 100% = plants have died, 0% = like control plants
Excerpt: as §2

[5] = tested on: harmful plants ABUTH, AMARE, ECHCG, LOLRI, MATIN, POAAN, SETVI, STEME, ALOMY, DIGSA, KCHSC and VERPE; assay: Herbicidal pre-emergence action (test C), summary of Tables C1-C12; conditions: application rate of 1280 or 320 g of active ingredient per hectare; summary in words
Excerpt: as §2, with “percentages.” for “percentages. For example, 100% activity=the plants have died, 0% activity=like control plants. Tables C1 to C12 below show the effects of selected compounds of the general formula (I) according to Table 1 on various harmful plants and an application rate corresponding to 1280 or 320 g/ha, which were obtained by the experimental procedure mentioned above.”
as §1
Tables C1 to C12 below show the effects of selected compounds of the general formula (I) according to Table 1 on various harmful plants and an application rate corresponding to 1280 or 320 g/ha, which were obtained by the experimental procedure mentioned above.
As the results of Tables C1-C12 show, compounds no.

Veronica persica (VERPE) [6] = assay: Herbicidal pre-emergence action, test C (Table C12); conditions: dosage 1280 g/ha, visual scoring vs untreated controls
Excerpt: as §2

Veronica persica (VERPE) [7] = assay: Herbicidal post-emergence action (Table B12); conditions: visual rating about 3 weeks after treatment, 100% = plants have died, 0% = like control plants
Method: (§3) Seeds of mono- and dicotyledonous weed plants were placed in plastic pots in sandy loam soil (doubly sown with in each case one species of mono- or dicotyledonous weed plants per pot), covered with soil and cultivated in a greenhouse under controlled growth conditions. 2 to 3 weeks after sowing, the test plants were treated at the one-leaf stage. The compounds of the invention, formulated in the form of wettable powders (WP) or as emulsion concentrates (EC), were applied onto the green parts of the plants as aqueous suspension or emulsion with addition of 0.5% additive at a water application rate of 600 liters per hectare (converted). After the test plants had been kept in the greenhouse under optimum growth conditions for about 3 weeks, the activity of the preparations was rated visually in comparison to untreated controls. For example, 100% activity=the plants have died, 0% activity=like control plants. Tables B1 to B12 below show the effects of selected compounds of the general formula (I) according to Table 1 on various harmful plants and an application rate corresponding to 1280 or 320 g/ha, which were obtained by the experimental procedure mentioned above.

[8] = tested on: Amaranthus retroflexus (AMARE); assay: Herbicidal pre-emergence action, test C (Table C6); conditions: visual scoring after about 3 weeks, 100% = plants have died, 0% = like control plants
Excerpt: as §2

[9] = tested on: Amaranthus retroflexus (AMARE); assay: Herbicidal post-emergence action (Table B6); conditions: visual rating about 3 weeks after treatment, 100% = plants have died, 0% = like control plants
Method: as §3

Stellaria media (STEME) [10] = assay: Herbicidal post-emergence action (Table B8); conditions: visual rating about 3 weeks after treatment, 100% = plants have died, 0% = like control plants
Method: as §3

Poa annua (POAAN) [11] = assay: Herbicidal post-emergence action (Table B3); conditions: rated visually after about 3 weeks, 100% = plants have died, 0% = like control plants
Method: as §3

[12] = tested on: Abutilon theophrasti (ABUTH); assay: Herbicidal post-emergence action (Table B5); conditions: rated visually after about 3 weeks, 100% = plants have died, 0% = like control plants
Method: as §3

[13] = tested on: Matricaria inodora (MATIN); assay: Herbicidal pre-emergence action, test C (Table C7); conditions: dosage 1280 g/ha; visual scoring after about 3 weeks; 100% = plants have died, 0% = like control plants
Excerpt: as §2

| Structure (SMILES) | herbicidal activity against the harmful plants of Tables B1-B12 in post-emergence treatment [1] | Pre-emergence action against Poa annua (POAAN) (Poa annua (POAAN) [2]; dosage 1280 g/ha) [%] | Pre-emergence action against Setaria viridis (SETVI) (Setaria viridis (SETVI); dosage 1280 g/ha) [%] | Pre-emergence action against Abutilon theophrasti (ABUTH) ([3]; dosage 1280 g/ha) [%] | Pre-emergence action against Stellaria media (STEME) (Stellaria media (STEME) [4]; dosage 320 g/ha) [%] | Pre-emergence action against Stellaria media (STEME) (Stellaria media (STEME) [4]; dosage 1280 g/ha) [%] | herbicidal activity against the harmful plants of Tables C1-C12 in pre-emergence treatment [5] | Post-emergence action against Veronica persica (VERPE) (Veronica persica (VERPE) [7]; dosage 1280 g/ha) [%] | Pre-emergence action against Amaranthus retroflexus (AMARE) ([8]; dosage 320 g/ha) [%] | Pre-emergence action against Amaranthus retroflexus (AMARE) ([8]; dosage 1280 g/ha) [%] | Post-emergence action against Amaranthus retroflexus (AMARE) ([9]; dosage 320 g/ha) [%] | Post-emergence action against Amaranthus retroflexus (AMARE) ([9]; dosage 1280 g/ha) [%] | Post-emergence action against Stellaria media (STEME) (Stellaria media (STEME) [10]; dosage 1280 g/ha) [%] | Post-emergence action against Poa annua (POAAN) (Poa annua (POAAN) [11]; 1280 g/ha) [%] | other results |
| --- | --- | --- | --- | --- | --- | --- | --- | --- | --- | --- | --- | --- | --- | --- | --- |
| Cc1ccc(-c2cc(C(F)F)no2)c(Oc2ncccc2F)c1 [Example 1-33] | very good herbicidal activity | 90 | 100 | 90 | 90 | 100 | very good herbicidal activity | 100 | – | – | – | – | – | – | Pre-emergence action against Veronica persica (VERPE) (Veronica persica (VERPE) [6]): 90%; Post-emergence action against Veronica persica (VERPE) (Veronica persica (VERPE) [7]; dosage 320 g/ha): 90% |
| Cn1nc(-c2cc(F)ccc2Oc2ccc(Cl)cn2)cc1C(F)F [Example 1-65] | very good herbicidal activity | 100 | – | – | – | – | very good herbicidal activity | 100 | 90 | 100 | 100 | 100 | – | – | Post-emergence action against Veronica persica (VERPE) (Veronica persica (VERPE) [7]; dosage 320 g/ha): 100% |
| Fc1cccc(Oc2ccc(Cl)cn2)c1-c1cc(C(F)F)on1 [Example 1-9] | very good herbicidal activity | 100 | 100 | 100 | 100 | 100 | very good herbicidal activity | – | 100 | 100 | 100 | 100 | 100 | 100 | Post-emergence action against Stellaria media (STEME) (Stellaria media (STEME) [10]; dosage 320 g/ha): 100%; Post-emergence action against Poa annua (POAAN) (Poa annua (POAAN) [11]; 320 g/ha): 100%; Post-emergence action against Abutilon theophrasti (ABUTH) ([12]; 320 g/ha): 100%; Post-emergence action against Abutilon theophrasti (ABUTH) ([12]; 1280 g/ha): 100%; Pre-emergence action against Poa annua (POAAN) (Poa annua (POAAN) [2]; dosage 320 g/ha): 100%; Pre-emergence action against Matricaria inodora (MATIN) [13]: 90% |
| Cc1ccc(-c2cc(C(F)F)no2)c(Oc2ncc(Cl)cc2Cl)c1 [Example 1-28] | very good herbicidal activity | – | 90 | – | – | 90 | very good herbicidal activity | 90 | – | – | 90 | 100 | 100 | 90 | Pre-emergence action against Setaria viridis (SETVI) (Setaria viridis (SETVI); dosage 320 g/ha): 90% |
| N#Cc1ccc(Oc2cccc(F)c2-c2cc(C(F)(F)F)on2)nc1 [Example 1-3] | very good herbicidal activity | 90 | 100 | 100 | 90 | 100 | very good herbicidal activity | – | 100 | 100 | 100 | 100 | 90 | 100 | Pre-emergence action against Setaria viridis (SETVI) (Setaria viridis (SETVI); dosage 320 g/ha): 100%; Pre-emergence action against Abutilon theophrasti (ABUTH) ([3]; dosage 320 g/ha): 90%; Pre-emergence action against Matricaria inodora (MATIN) [13]: 90% |
| Fc1cccc(Oc2ncc(Cl)cc2Cl)c1-c1cc(C(F)(F)F)on1 [Example 1-4] | very good herbicidal activity | – | – | – | – | – | very good herbicidal activity | – | – | 90 | – | – | 100 | – | – |
| Fc1cccc(Oc2ncc(C(F)(F)F)cc2Cl)c1-c1cc(C(F)F)no1 [Example 1-22] | very good herbicidal activity | 100 | 90 | – | 90 | 100 | very good herbicidal activity | – | – | 100 | – | – | – | 100 | Post-emergence action against Poa annua (POAAN) (Poa annua (POAAN) [11]; 320 g/ha): 100%; Post-emergence action against Abutilon theophrasti (ABUTH) ([12]; 1280 g/ha): 100% |
